From PMC9569420 (Communications Biology, 2022)

Assays:
HIPK2 = biological target: T1, HIPK2 (Homo sapiens, UniProt Q9H2X6); experiment: HotSpot kinase assay; type: biochemical; conditions: read-out: % Enzyme Activity (relative to DMSO controls)
T1 construct: purchased Reaction Biology Corporation

FER = biological target: T2, FER (Homo sapiens, UniProt P16591); experiment: HotSpot kinase assay; type: biochemical; conditions: read-out: % Enzyme Activity (relative to DMSO controls)
T2 construct: purchased Reaction Biology Corporation

CTK/MATK = biological target: T3, CTK/MATK (Homo sapiens, UniProt P42679); experiment: HotSpot kinase assay; type: biochemical; conditions: read-out: % Enzyme Activity (relative to DMSO controls)
T3 construct: purchased Reaction Biology Corporation

EPHB3 = biological target: T4, EPHB3 (Homo sapiens, UniProt P54753); experiment: HotSpot kinase assay; type: biochemical; conditions: read-out: % Enzyme Activity (relative to DMSO controls)
T4 construct: purchased Reaction Biology Corporation

DAPK2 = biological target: T5, DAPK2 (Homo sapiens, UniProt Q9UIK4); experiment: HotSpot kinase assay; type: biochemical; conditions: read-out: % Enzyme Activity (relative to DMSO controls)
T5 construct: purchased Reaction Biology Corporation

CDK9/cyclin T2 = biological target: T6, CDK9/cyclin T2 (Homo sapiens, UniProt P50750); experiment: HotSpot kinase assay; type: biochemical; conditions: read-out: % Enzyme Activity (relative to DMSO controls)
T6 construct: purchased Reaction Biology Corporation

GRK5 = biological target: T7, GRK5 (Homo sapiens, UniProt P34947); experiment: HotSpot kinase assay; type: biochemical; conditions: read-out: % Enzyme Activity (relative to DMSO controls)
T7 construct: purchased Reaction Biology Corporation

STK25/YSK1 = biological target: T8, STK25/YSK1 (Homo sapiens, UniProt O00506); experiment: HotSpot kinase assay; type: biochemical; conditions: read-out: % Enzyme Activity (relative to DMSO controls)
T8 construct: purchased Reaction Biology Corporation

DYRK2 = biological target: T9, DYRK2 (Homo sapiens, UniProt Q92630); experiment: HotSpot kinase assay; type: biochemical; conditions: read-out: % Enzyme Activity (relative to DMSO controls)
T9 construct: purchased Reaction Biology Corporation

MLK1/MAP3K9 = biological target: T10, MLK1/MAP3K9 (Homo sapiens, UniProt P80192); experiment: HotSpot kinase assay; type: biochemical; conditions: read-out: % Enzyme Activity (relative to DMSO controls)
T10 construct: purchased Reaction Biology Corporation

STK16 = biological target: T11, STK16 (Homo sapiens, UniProt O75716); experiment: HotSpot kinase assay; type: biochemical; conditions: read-out: % Enzyme Activity (relative to DMSO controls)
T11 construct: purchased Reaction Biology Corporation

CK1g2 = biological target: T12, CK1g2 (Homo sapiens, UniProt P78368); experiment: HotSpot kinase assay; type: biochemical; conditions: read-out: % Enzyme Activity (relative to DMSO controls)
T12 construct: purchased Reaction Biology Corporation

AKT2 = biological target: T13, AKT2 (Homo sapiens, UniProt P31751); experiment: biochemical
T13 construct: purchased Reaction Biology Corporation

SGK1 = biological target: T14, SGK1 (Homo sapiens, UniProt O00141); experiment: HotSpot kinase assay; type: biochemical; conditions: read-out: % Enzyme Activity (relative to DMSO controls)
T14 construct: purchased Reaction Biology Corporation

CDK4/cyclin D1 = biological target: T15, CDK4/cyclin D1 (Homo sapiens, UniProt P11802); experiment: HotSpot kinase assay; type: biochemical; conditions: read-out: % Enzyme Activity (relative to DMSO controls)
T15 construct: purchased Reaction Biology Corporation

FGFR2 = biological target: T16, FGFR2 (Homo sapiens, UniProt P21802); experiment: HotSpot kinase assay; type: biochemical; conditions: read-out: % Enzyme Activity (relative to DMSO controls)
T16 construct: purchased Reaction Biology Corporation

FGFR4 = biological target: T17, FGFR4 (Homo sapiens, UniProt P22455); experiment: HotSpot kinase assay; type: biochemical; conditions: read-out: % Enzyme Activity (relative to DMSO controls)
T17 construct: purchased Reaction Biology Corporation

CDK2/cyclin O = biological target: T18, CDK2/cyclin O (Homo sapiens, UniProt P24941); experiment: HotSpot kinase assay; type: biochemical; conditions: read-out: % Enzyme Activity (relative to DMSO controls)
T18 construct: purchased Reaction Biology Corporation

MKK4 = biological target: T19, MKK4 (Homo sapiens, UniProt P45985); experiment: HotSpot kinase assay; type: biochemical; conditions: read-out: % Enzyme Activity (relative to DMSO controls)
T19 construct: purchased Reaction Biology Corporation

ROCK2 = biological target: T20, ROCK2 (Homo sapiens, UniProt O75116); experiment: HotSpot kinase assay; type: biochemical; conditions: read-out: % Enzyme Activity (relative to DMSO controls)
T20 construct: purchased Reaction Biology Corporation

ERK7/MAPK15 = biological target: T21, ERK7/MAPK15 (Homo sapiens, UniProt Q8TD08); experiment: HotSpot kinase assay; type: biochemical; conditions: read-out: % Enzyme Activity (relative to DMSO controls)
T21 construct: purchased Reaction Biology Corporation

CDK14/cyclin Y (PFTK1) = biological target: T22, CDK14/cyclin Y (PFTK1) (Homo sapiens, UniProt O94921); experiment: HotSpot kinase assay; type: biochemical; conditions: read-out: % Enzyme Activity (relative to DMSO controls)
T22 construct: purchased Reaction Biology Corporation

CLK3 = biological target: T23, CLK3 (Homo sapiens, UniProt P49761); experiment: HotSpot kinase assay; type: biochemical; conditions: read-out: % Enzyme Activity (relative to DMSO controls)
T23 construct: purchased Reaction Biology Corporation

EEF2K = biological target: T24, EEF2K (Homo sapiens, UniProt O00418); experiment: HotSpot kinase assay; type: biochemical; conditions: read-out: % Enzyme Activity (relative to DMSO controls)
T24 construct: purchased Reaction Biology Corporation

PHKg1 = biological target: T25, PHKg1 (Homo sapiens, UniProt Q16816); experiment: HotSpot kinase assay; type: biochemical; conditions: read-out: % Enzyme Activity (relative to DMSO controls)
T25 construct: purchased Reaction Biology Corporation

CDK3/cyclin E = biological target: T26, CDK3/cyclin E (Homo sapiens, UniProt Q00526); experiment: HotSpot kinase assay; type: biochemical; conditions: read-out: % Enzyme Activity (relative to DMSO controls)
T26 construct: purchased Reaction Biology Corporation

FMS = biological target: T27, FMS (Homo sapiens, UniProt P07333); experiment: HotSpot kinase assay; type: biochemical; conditions: read-out: % Enzyme Activity (relative to DMSO controls)
T27 construct: purchased Reaction Biology Corporation

MASTL = biological target: T28, MASTL (Homo sapiens, UniProt Q96GX5); experiment: HotSpot kinase assay; type: biochemical; conditions: read-out: % Enzyme Activity (relative to DMSO controls)
T28 construct: purchased Reaction Biology Corporation

CDK5/P25 = biological target: T29, CDK5/P25 (Homo sapiens, UniProt Q00535); experiment: HotSpot kinase assay; type: biochemical; conditions: read-out: % Enzyme Activity (relative to DMSO controls)
T29 construct: purchased Reaction Biology Corporation

ZAP70 = biological target: T30, ZAP70 (Homo sapiens, UniProt P43403); experiment: HotSpot kinase assay; type: biochemical; conditions: read-out: % Enzyme Activity (relative to DMSO controls)
T30 construct: purchased Reaction Biology Corporation

LYN = biological target: T31, LYN (Homo sapiens, UniProt P07948); experiment: HotSpot kinase assay; type: biochemical; conditions: read-out: % Enzyme Activity (relative to DMSO controls)
T31 construct: purchased Reaction Biology Corporation

CHK1 = biological target: T32, CHK1 (Homo sapiens, UniProt O14757); experiment: HotSpot kinase assay; type: biochemical; conditions: read-out: % Enzyme Activity (relative to DMSO controls)
T32 construct: purchased Reaction Biology Corporation

ERK2/MAPK1 = biological target: T33, ERK2/MAPK1 (Homo sapiens, UniProt P28482); experiment: HotSpot kinase assay; type: biochemical; conditions: read-out: % Enzyme Activity (relative to DMSO controls)
T33 construct: purchased Reaction Biology Corporation

IRAK1 = biological target: T34, IRAK1 (Homo sapiens, UniProt P51617); experiment: HotSpot kinase assay; type: biochemical; conditions: read-out: % Enzyme Activity (relative to DMSO controls)
T34 construct: purchased Reaction Biology Corporation

EPHA2 = biological target: T35, EPHA2 (Homo sapiens, UniProt P29317); experiment: HotSpot kinase assay; type: biochemical; conditions: read-out: % Enzyme Activity (relative to DMSO controls)
T35 construct: purchased Reaction Biology Corporation

JNK3 = biological target: T36, JNK3 (Homo sapiens, UniProt P53779); experiment: HotSpot kinase assay; type: biochemical; conditions: read-out: % Enzyme Activity (relative to DMSO controls)
T36 construct: purchased Reaction Biology Corporation

BTK = biological target: T37, BTK (Homo sapiens, UniProt Q06187); experiment: HotSpot kinase assay; type: biochemical; conditions: read-out: % Enzyme Activity (relative to DMSO controls)
T37 construct: purchased Reaction Biology Corporation

[1] = test system: Primary vaginal epithelial cells; experiment: cell proliferation and viability, ~50% confluent; conditions: for cell proliferation and viability, odu as a percentage of the DMSO control: 120 h (Fig 1d source data)
[2] = cell proliferation and viability, ~50% confluent; conditions: human, cell proliferation and viability, odu as a percentage of the DMSO control, 120 h (Fig 1d source data)
CAMKK1 = biological target: T38, CAMKK1 (Homo sapiens, UniProt Q8N5S9); experiment: biochemical; conditions: read-out: % Enzyme Activity (relative to DMSO controls)
T38 construct: purchased Reaction Biology Corporation
T38 sequence (Q8N5S9 whole entry): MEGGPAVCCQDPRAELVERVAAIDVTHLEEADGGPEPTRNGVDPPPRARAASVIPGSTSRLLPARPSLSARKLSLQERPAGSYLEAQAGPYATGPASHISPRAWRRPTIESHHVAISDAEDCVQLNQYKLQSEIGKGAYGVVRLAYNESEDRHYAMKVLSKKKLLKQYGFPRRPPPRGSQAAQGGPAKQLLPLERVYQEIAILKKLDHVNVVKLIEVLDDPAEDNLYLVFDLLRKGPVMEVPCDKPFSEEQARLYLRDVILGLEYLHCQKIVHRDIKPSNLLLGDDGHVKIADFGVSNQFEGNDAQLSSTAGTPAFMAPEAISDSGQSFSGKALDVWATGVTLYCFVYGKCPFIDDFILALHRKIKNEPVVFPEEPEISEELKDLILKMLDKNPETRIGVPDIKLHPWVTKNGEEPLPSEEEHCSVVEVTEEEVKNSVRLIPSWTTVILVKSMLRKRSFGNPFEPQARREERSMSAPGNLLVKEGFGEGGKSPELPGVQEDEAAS

T13 sequence (P31751 whole entry): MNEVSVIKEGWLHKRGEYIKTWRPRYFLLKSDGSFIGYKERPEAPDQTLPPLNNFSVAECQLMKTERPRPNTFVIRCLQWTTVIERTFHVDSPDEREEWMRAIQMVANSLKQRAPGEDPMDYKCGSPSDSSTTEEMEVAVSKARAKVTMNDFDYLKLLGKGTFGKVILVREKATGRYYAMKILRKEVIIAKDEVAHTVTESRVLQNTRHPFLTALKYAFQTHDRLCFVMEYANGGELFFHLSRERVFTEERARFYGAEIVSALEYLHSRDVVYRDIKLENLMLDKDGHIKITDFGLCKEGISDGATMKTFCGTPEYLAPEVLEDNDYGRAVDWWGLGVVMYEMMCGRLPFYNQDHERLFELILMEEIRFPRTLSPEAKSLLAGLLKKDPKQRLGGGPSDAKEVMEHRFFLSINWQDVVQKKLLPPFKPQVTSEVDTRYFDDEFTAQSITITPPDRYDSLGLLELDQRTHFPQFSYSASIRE
T25 sequence (Q16816 whole entry): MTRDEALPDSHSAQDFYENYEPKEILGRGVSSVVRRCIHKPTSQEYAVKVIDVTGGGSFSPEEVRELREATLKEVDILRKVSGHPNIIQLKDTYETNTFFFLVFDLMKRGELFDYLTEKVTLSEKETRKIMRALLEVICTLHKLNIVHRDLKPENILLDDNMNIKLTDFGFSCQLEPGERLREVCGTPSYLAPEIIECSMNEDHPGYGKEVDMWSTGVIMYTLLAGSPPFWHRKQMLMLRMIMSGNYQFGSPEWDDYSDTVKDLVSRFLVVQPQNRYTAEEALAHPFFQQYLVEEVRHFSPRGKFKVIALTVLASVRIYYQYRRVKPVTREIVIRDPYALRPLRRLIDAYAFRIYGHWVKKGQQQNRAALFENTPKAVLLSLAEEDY
T26 sequence (Q00526 whole entry): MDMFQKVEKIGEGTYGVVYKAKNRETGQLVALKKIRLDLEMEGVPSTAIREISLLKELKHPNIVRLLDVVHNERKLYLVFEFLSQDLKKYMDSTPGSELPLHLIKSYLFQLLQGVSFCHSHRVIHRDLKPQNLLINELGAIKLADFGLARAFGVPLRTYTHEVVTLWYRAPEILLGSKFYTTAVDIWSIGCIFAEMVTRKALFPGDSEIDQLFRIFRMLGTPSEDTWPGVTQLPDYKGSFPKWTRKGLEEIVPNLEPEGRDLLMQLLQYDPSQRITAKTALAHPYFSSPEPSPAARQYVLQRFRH
T26 sequence (P24864 whole entry, further chain): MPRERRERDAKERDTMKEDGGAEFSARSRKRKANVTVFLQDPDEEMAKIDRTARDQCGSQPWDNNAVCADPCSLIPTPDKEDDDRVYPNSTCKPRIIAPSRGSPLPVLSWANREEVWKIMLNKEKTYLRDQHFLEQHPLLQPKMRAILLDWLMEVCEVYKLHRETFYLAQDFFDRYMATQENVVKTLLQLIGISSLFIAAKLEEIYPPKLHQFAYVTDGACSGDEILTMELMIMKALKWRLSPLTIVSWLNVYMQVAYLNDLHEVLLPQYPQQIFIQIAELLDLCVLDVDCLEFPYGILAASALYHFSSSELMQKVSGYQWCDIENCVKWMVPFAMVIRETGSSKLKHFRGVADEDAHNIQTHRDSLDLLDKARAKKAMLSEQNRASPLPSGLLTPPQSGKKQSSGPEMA
T15 sequence (P11802 whole entry): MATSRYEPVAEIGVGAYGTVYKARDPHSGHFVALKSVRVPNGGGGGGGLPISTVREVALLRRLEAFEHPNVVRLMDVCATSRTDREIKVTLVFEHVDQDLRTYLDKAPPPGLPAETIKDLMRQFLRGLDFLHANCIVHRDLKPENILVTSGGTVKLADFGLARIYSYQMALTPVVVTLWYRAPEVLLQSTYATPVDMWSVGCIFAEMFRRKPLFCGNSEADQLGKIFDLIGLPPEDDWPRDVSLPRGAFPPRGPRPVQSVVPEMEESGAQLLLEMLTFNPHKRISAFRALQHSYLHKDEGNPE
T15 sequence (P24385 whole entry partner): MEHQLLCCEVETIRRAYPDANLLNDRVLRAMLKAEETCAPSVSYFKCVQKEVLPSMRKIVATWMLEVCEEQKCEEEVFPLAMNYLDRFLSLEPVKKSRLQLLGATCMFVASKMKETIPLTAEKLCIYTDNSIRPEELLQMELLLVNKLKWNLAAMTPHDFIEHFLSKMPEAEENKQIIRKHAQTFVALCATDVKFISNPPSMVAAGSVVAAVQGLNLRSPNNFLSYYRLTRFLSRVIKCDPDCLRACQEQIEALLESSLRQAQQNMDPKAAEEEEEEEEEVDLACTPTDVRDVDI
T28 sequence (Q96GX5 whole entry): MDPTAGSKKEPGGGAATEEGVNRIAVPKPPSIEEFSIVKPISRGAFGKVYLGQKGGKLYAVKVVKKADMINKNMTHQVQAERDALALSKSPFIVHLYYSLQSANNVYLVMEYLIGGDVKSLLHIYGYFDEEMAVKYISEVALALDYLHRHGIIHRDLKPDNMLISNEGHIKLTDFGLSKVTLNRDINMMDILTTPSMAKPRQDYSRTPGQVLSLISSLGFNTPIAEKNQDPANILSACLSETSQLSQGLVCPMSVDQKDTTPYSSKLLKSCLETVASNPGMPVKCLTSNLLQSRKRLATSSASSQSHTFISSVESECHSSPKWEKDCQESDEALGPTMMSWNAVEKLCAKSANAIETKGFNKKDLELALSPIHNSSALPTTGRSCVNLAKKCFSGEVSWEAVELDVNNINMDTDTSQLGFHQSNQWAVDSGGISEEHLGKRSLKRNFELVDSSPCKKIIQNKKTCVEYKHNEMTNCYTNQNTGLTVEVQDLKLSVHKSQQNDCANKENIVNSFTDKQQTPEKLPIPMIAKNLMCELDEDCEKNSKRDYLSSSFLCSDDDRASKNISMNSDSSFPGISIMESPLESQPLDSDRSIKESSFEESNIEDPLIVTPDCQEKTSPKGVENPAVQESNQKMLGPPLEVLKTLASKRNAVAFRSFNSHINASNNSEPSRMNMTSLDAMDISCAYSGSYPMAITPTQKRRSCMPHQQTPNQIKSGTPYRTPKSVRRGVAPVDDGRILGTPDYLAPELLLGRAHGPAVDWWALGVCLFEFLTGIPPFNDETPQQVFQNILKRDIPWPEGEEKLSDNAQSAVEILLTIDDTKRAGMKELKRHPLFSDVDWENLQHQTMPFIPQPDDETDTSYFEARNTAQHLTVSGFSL
T12 sequence (P78368 whole entry): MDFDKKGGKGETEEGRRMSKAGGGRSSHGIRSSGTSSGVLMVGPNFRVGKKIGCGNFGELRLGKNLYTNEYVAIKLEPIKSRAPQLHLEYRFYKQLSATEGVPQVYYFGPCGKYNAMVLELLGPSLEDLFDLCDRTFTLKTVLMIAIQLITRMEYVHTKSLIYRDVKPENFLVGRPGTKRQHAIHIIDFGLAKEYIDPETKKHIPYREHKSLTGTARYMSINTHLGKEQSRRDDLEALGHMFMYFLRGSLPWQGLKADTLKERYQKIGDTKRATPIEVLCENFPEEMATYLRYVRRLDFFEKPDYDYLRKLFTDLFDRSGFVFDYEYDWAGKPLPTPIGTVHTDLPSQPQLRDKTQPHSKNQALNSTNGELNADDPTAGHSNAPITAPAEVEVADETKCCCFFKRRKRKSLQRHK
T36 sequence (P53779 whole entry): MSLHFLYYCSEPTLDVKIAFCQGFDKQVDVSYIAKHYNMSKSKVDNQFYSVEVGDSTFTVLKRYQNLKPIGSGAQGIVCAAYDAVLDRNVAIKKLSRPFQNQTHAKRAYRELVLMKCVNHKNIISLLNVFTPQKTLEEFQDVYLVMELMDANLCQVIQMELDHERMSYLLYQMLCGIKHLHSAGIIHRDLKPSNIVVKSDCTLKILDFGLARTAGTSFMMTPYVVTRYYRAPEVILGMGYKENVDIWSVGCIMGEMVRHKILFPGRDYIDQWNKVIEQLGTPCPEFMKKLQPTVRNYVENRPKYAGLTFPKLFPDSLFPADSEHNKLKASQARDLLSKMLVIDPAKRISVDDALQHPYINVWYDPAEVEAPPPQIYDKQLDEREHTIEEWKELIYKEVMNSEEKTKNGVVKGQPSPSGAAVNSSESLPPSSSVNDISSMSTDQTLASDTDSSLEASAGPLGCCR
T31 sequence (P07948 whole entry): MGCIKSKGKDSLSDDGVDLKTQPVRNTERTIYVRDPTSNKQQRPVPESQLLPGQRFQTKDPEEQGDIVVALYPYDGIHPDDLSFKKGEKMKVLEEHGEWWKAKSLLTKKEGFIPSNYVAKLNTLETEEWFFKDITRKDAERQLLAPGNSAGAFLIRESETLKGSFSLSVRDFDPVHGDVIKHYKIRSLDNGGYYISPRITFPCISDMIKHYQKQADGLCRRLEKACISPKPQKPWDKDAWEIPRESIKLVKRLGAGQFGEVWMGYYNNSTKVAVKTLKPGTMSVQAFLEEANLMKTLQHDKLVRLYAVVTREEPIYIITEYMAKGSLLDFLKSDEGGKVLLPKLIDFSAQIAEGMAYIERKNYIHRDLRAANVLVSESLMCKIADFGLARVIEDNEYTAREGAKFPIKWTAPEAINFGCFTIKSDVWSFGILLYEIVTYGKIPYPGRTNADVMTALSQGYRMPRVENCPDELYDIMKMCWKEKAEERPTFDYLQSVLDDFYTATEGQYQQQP

SMILES: CO[C@@H]1[C@H](N(C)C(=O)CCC(=O)NCc2cn(CCCS(=O)(=O)O)nn2)C[C@H]2O[C@]1(C)n1c3ccccc3c3c4c(c5c6ccccc6n2c5c31)C(=O)NC4 [CIMSS]
- remaining activity at 10 µM (HIPK2): 17.5%
- remaining activity at 10 µM (FER): 0.37%
- remaining activity at 10 µM (CTK/MATK): 24.6%
- remaining activity at 10 µM (EPHB3): 28.9%
- remaining activity at 10 µM (DAPK2): 11.3%
- remaining activity at 10 µM (CDK9/cyclin T2): 8.55%
- remaining activity at 10 µM (GRK5): 7.35%
- remaining activity at 10 µM (STK25/YSK1): 4.17%
- remaining activity at 10 µM (DYRK2): 9.12%
- remaining activity at 10 µM (MLK1/MAP3K9): 4.06%
- remaining activity at 10 µM (STK16): 10.2%
- remaining activity at 10 µM (CK1g2): 98.5%
- IC50 (AKT2; Supplementary Table 1, read-out: IC50 (Molar concentration)): 1 µM
- remaining activity at 10 µM (AKT2; read-out: % Enzyme Activity (relative to DMSO controls), 10µM): 19.1%
- inhibition at 10 µM (AKT2; read-out: inhibition of Akt2): > 75%
- remaining activity at 10 µM (SGK1): 13.4%
- remaining activity at 10 µM (CDK4/cyclin D1): 68.8%
- remaining activity at 10 µM (FGFR2): 2.58%
- remaining activity at 10 µM (FGFR4): 4.31%
- remaining activity at 10 µM (CDK2/cyclin O): 4.97%
- remaining activity at 10 µM (MKK4): 99%
- remaining activity at 10 µM (ROCK2): 12.7%
- remaining activity at 10 µM (ERK7/MAPK15): 27.9%
- remaining activity at 10 µM (CDK14/cyclin Y (PFTK1)): 74.5%
- remaining activity at 10 µM (CLK3): 35.4%
- remaining activity at 10 µM (EEF2K): 99.5%
- remaining activity at 10 µM (PHKg1): 3.74%
- remaining activity at 10 µM (CDK3/cyclin E): 13.9%
- remaining activity at 10 µM (FMS): 0.52%
- remaining activity at 10 µM (MASTL): 33.8%
- remaining activity at 10 µM (CDK5/P25): 7.17%
- remaining activity at 10 µM (ZAP70): 13%
- remaining activity at 10 µM (LYN): 2.5%
- remaining activity at 10 µM (CHK1): 4.66%
- remaining activity at 10 µM (ERK2/MAPK1): 75.3%
- remaining activity at 10 µM (IRAK1): 3.57%
- remaining activity at 10 µM (EPHA2): 33.5%
- remaining activity at 10 µM (JNK3): 23.6%
- remaining activity at 10 µM (BTK): 6.64%
- cell proliferation and viability, odu as a percentage of the DMSO control ([1]; 10 μM): 99.5%
- cell proliferation and viability, odu as a percentage of the DMSO control ([1]; 50 μM): 91.8%
- cytotoxicity ([1]; 10 or 50 μM, up to 120 h): little or no cytotoxicity
- viability at 120 h, 10 µM ([2]; 10 μM): 102%
- viability at 120 h, 50 µM ([2]; 50 μM): 93%
- remaining activity at 10 µM (CAMKK1): 1%
